Measured values published in the METLIN SMRT retention time set (Domingo-Almenara et al. 2019).

Assay: gradient 5% acetonitrile 3 min, to 50% in 2 min, to 85% in 15 min, held 3 min, 100 µL/min
Conditions: column: Zorbax Extend-C18 2.1 x 50 mm; eluents: water / acetonitrile, 0.1% formic acid
Summary of the method: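 Standards, all pure, were combined into mixtures of ~100 molecules and run at 100 μL/min on a Zorbax Extend-C18 column (2.1 × 50 mm, 1.8 μm) with water and acetonitrile, each containing 0.1% formic acid. A coupled quadrupole time-of-flight mass spectrometer operated in positive and negative ionization mode. Retention time values come from computationally picked adduct peaks, each inspected manually.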

| RP-LC retention time [s] | SMILES |
| --- | --- |
| 750 | CCCC(NC(=O)CCc1ccccc1OC)C(=O)Nc1nc2ccccc2[nH]1 (configuration not stated) |
| 687 | O=C(NCC1CN(CC2CC2)CC12CCCCC2)Nc1ccc(F)cc1 (configuration not stated) |
| 961 | O=C(NCc1ccccc1F)c1sc2ncccc2c1-n1cccc1 |
| 706 | Cc1noc([C@@H]2CC(F)(F)CN2C(=O)c2ccco2)n1 |
| 661 | CCC1CCCCN1C(=O)c1cnc2nc(C)ccc2c1Nc1ccccc1OC (configuration not stated) |
| 642 | CN(C)C(=O)c1ccc2c(c1)nc(CN(C)C(=O)Nc1cccc(Br)c1)n2C |
| 776 | Cc1ccc2[nH]c(C(=O)NCC3CCCO3)cc2c1 (configuration not stated) |
| 552 | COC(=O)c1ccc(CNC2CCN(c3ccc(C(=O)NC4CC4)cn3)C2)cc1 (configuration not stated) |
| 670 | O=C(Cc1csc(NC(=O)c2ncccn2)n1)Nc1nc2ccccc2s1 |
| 829 | COC(=O)c1cc(OC)c(OC)cc1NC(=O)C1=Cc2cc(OC)ccc2OC=C1 |
| 908 | Cc1ccc(Cn2c(=O)c(N3CCN(C(=O)NCC4CCCO4)CC3)nc3ccccc32)cc1 (configuration not stated) |
| 596 | Nc1ccc(-c2nc3nc(N)nc(N)c3nc2-c2ccc(N)cc2)cc1 |
| 805 | O=C(c1cc(C2CC2)[nH]n1)N1CCC(F)(F)C(COCC2CC2)C1 (configuration not stated) |
| 599 | CC(=O)N1N=C(c2ccccc2NS(C)(=O)=O)CC1c1ccc2ncccc2c1 (configuration not stated) |
| 618 | c1ccc(C2CN3CCSC3=N2)cc1 (configuration not stated) |
| 758 | O=C(NCCC1CCN(C(=O)Nc2cc(F)ccc2F)CC1)c1ccoc1 |
| 567 | O=C(CCc1c(-c2ccc(Br)cc2)nc2ccccn12)NCCN1CCCC1 |
| 685 | O=C(NCc1cccnc1Oc1ccccc1)c1ccco1 |
| 662 | O=C(Cn1c(CN2CCCCCC2)nc2ccccc21)N1CCCCC1 |
| 1010 | CCCCNC(=O)C1CCN(C(=O)c2cc3ccsc3n2Cc2ccc(Cl)cc2)CC1 |
| 957 | CC(C)CCNC(=O)c1ccc2c(c1)nc(Nc1n[nH]c3ccc(-c4ccccc4OC(F)(F)F)cc13)n2C1CCC(O)CC1 (configuration not stated) |
| 968 | CCc1nc2cc(-c3noc(-c4ccco4)n3)ccc2o1 |
| 744 | O=S(=O)(Nc1cccnc1)c1cc(-c2nnc(-c3ccccc3)o2)ccc1F |

| RP-LC retention time [s] | SMILES |
| --- | --- |
| 560 | COc1ccc(C(=O)c2cnc3cc4c(cc3c2N2CCN(C)CC2)OCCO4)cc1 |
| 805 | CCCCCC(=O)N1CCCC1 |
| 1230 | CCCCN1C(=O)C(C)(C(=O)Nc2cc(Cl)ccc2OC)Oc2cccnc21 (configuration not stated) |
| 873 | Cc1ccc(C2Cn3nnc(C(=O)NCC4CC4)c3CO2)cc1 (configuration not stated) |
| 575 | CCOC(=O)c1c(C)[nH]c(C(=O)N2CCC(CC(=O)NCCN3CCOCC3)CC2)c1C |
| 870 | Cc1cc(C(=O)Nc2nc3c(s2)CN(C(=O)c2nc4ccccc4s2)CC3)no1 |
| 853 | CCCC(=O)Nc1nc(-c2ccc3c(c2)N(CC)C(=O)CO3)cs1 |
| 877 | COc1cccc(-c2noc(C3CCCN3C(=O)Nc3ccccc3C)n2)c1 (configuration not stated) |
| 865 | COc1cc(OC)cc(N2C(=O)C3N=NN(Cc4nc(-c5ccc(OC)cc5OC)no4)C3C2=O)c1 (configuration not stated) |
| 753 | CC(C)C(=O)Nc1ccc(-n2cnc(C(=O)NCc3ccc(F)cc3)c2)nc1 |
| 967 | Cc1ccc(Cn2nc3c(S(=O)(=O)N4CCCCC4)cccn3c2=O)c(C)c1 |
| 655 | O=C(Nc1cccc(C(F)(F)F)c1)Nc1c(-c2ccncc2)nc2ccccn12 |
| 1140 | C=CCn1c(=O)c2ccccc2n(Cc2nc(-c3cccc(Br)c3)no2)c1=O |
| 584 | NC(=O)[C@@H]1C[C@H](Oc2cccnc2)CN1C(=O)CC1CCCC1 |
| 637 | Cc1cccnc1NC(=O)c1csnn1 |
| 820 | CC(C)NC(=O)N1CCc2c(c(-c3nc(-c4ccccc4)no3)nn2C)C1 |
| 792 | CCOC(=O)c1c(C)c(CCC(=O)NCc2ccco2)n(C)c1C |
| 632 | CCN(CC)c1cc(CNC(=O)Nc2cc(OC)ccc2OC)ccn1 |
| 799 | Cc1csc2nc(CSc3nnc(-c4ccccc4F)o3)cc(=O)n12 |
| 901 | Cc1ccc(C(=O)N2CCC3(CC2)N=C(c2ccc(Cl)cc2)NO3)s1 |
| 968 | CC1=NS(=O)(=O)N(C)C=C1C(=O)OCc1cccc(Cl)c1 |
| 626 | CCOC(=O)c1c(C)[nH]c(CCC(=O)NCc2cn[nH]c2C)c1C |
| 1320 | Cc1ccc(N(C)S(=O)(=O)c2cc(-c3cc(C(F)(F)F)on3)sc2C)cc1 |

| RP-LC retention time [s] | SMILES |
| --- | --- |
| 880 | O=C(NCCc1ccccc1)c1cn2c3c(ccc(Cl)c3c1=O)OCC2 |
| 838 | Cc1ccc(Nc2c(-c3ccc(N(C)C)cc3)nc3ccc(Br)cn23)cc1 |
| 1010 | Cc1cc(C)c(NC(=O)C2CCN(S(=O)(=O)c3c(C)nn(-c4ccccc4)c3C)CC2)c(C)c1 |
| 900 | COC(=O)c1ccc(NC(=O)C(=O)NC(C)Cc2cccs2)cc1 (configuration not stated) |
| 1080 | Cc1cc(C)n2ncc(-c3ccc(C)c(S(=O)(=O)NCc4ccc(F)cc4Cl)c3)c2n1 |
| 826 | Cc1ccc(CNC(=O)c2nnc(-c3ccc(S(=O)(=O)N(C)C)cc3)o2)o1 |
| 722 | CCN(CC)C(=O)c1ccc(-c2nc3cc(NS(=O)(=O)c4ccc(F)c(C)c4)ccc3n2C)cc1 |
| 893 | CCOC(=O)c1ccc(NC(=O)Cn2c(=O)n(-c3ccc(F)cc3)c(=O)c3c2cc(C)n3C)cc1 |
| 611 | Cc1cnc(C(=O)NC2C[C@H]3CC[C@@H](C2)N3C(=O)Cc2c(C)noc2C)cn1 (some centres not stated) |
| 588 | CCCNC(=O)N1CCC(CCOc2cccnc2)CC1 |
| 715 | CNC(=O)C1Cc2ccccc2N1C(=O)c1ccccc1SC(F)F (configuration not stated) |
| 833 | CCOC(=O)C1CCN(c2nc(=O)n(CC(=O)Nc3cccc(C)c3)c3ccccc23)CC1 |
| 927 | Cc1cccc(NC(=O)Cn2nc(N3CCCC3)c3ccccc3c2=O)c1C |
| 1090 | Cc1cc(C(=O)NCc2cccc(F)c2)nc2cc(-c3cccs3)nn12 |
| 750 | Cc1nc2c(sc3nc(-c4ccccc4)ccc32)c(=O)n1CC(=O)NCc1cccs1 |
| 612 | CCn1c(=O)c(SCC(=O)N2CCN(c3ccccn3)CC2)nc2ccccc21 |
| 674 | CC(C)CCNC(=O)C1(C)CN(S(=O)(=O)c2ccccc2)CC(=O)N1CCCN1CCCCC1 (configuration not stated) |
| 642 | CCCNS(=O)(=O)c1cc2n(c1)CCCN(CC)C2=O |
| 1160 | CCN(CCNC(=O)c1ccc2[nH]c3c(c2c1)CN(C(C)=O)CC3)c1ccccc1 |
| 977 | COc1cc(OC)cc(C(=O)N2CCc3cc(-c4csc(C)n4)ccc32)c1 |
| 1120 | O=c1c2cc(-c3ccc(Cl)cc3)nn2ccn1Cc1ccc(F)cc1 |
